In ChEMBL document CHEMBL5236544, “Furazans in Medicinal Chemistry” (J Med Chem, 2021):

Columns and labels:
[1] = system: SK-OV-3; assay: Antitumor activity against human SK-OV-3 cells in xenografted mouse model assessed as reduction in tumor growth at 30 mg/kg, ip administered daily for 21 days relative to control; type: functional; parameters: scale not given: the % may be the effect or the level left; conditions: time 21 day
[2] = system: PANC-1; assay: Antitumor activity against human PANC-1 cells in xenografted mouse model assessed as reduction in tumor growth at 30 mg/kg, ip administered daily for 21 days relative to control; type: functional; parameters: scale not given: the % may be the effect or the level left; conditions: time 21 day
[3] = system: HCC1954; assay: Antitumor activity against human HCC1954 cells in xenografted mouse model assessed as reduction in tumor growth at 30 mg/kg, ip administered daily for 21 days relative to control; type: functional; parameters: scale not given: the % may be the effect or the level left; conditions: time 21 day
[4] = system: LNCaP; assay: Antitumor activity against human LNCaP cells in xenografted mouse model assessed as reduction in tumor growth at 30 mg/kg, ip administered daily for 21 days relative to control; type: functional; parameters: scale not given: the % may be the effect or the level left; conditions: time 21 day
[5] = system: MDA-MB-453; assay: Antitumor activity against human MDA-MB-453 cells in xenografted mouse model assessed as reduction in tumor growth at 30 mg/kg, ip administered daily for 21 days relative to control; type: functional; parameters: scale not given: the % may be the effect or the level left; conditions: time 21 day
[6] = system: BT-474; assay: Antitumor activity against human BT-474 cells in xenografted mouse model assessed as reduction in tumor growth at 30 mg/kg, ip administered daily for 21 days relative to control; type: functional; parameters: scale not given: the % may be the effect or the level left; conditions: time 21 day
[7] = Half life in mouse; type: ADME, organism-based; conditions: in vivo
[8] = Stability in rat assessed as intrinsic clearance; type: ADME; conditions: CLH
[9] = Oral bioavailability in rat at 3 mg/kg relative to control; type: ADME, organism-based; conditions: in vivo
[10] = system: HeLa; assay: Antitumor activity against human HeLa cells xenografted in mouse model assessed as reduction in tumor growth at 75 mg/kg bid relative to control; type: functional; parameters: scale not given: the % may be the effect or the level left
[11] = system: HeLa; assay: Antitumor activity against human HeLa cells xenografted in mouse assessed as reduction in tumor growth at 30 mg/kg bid relative to control; type: functional; parameters: scale not given: the % may be the effect or the level left
[12] = Inhibition of human recombinant LDH
[13] = Half life in mouse at 10 mg/kg, po; type: ADME, organism-based; conditions: in vivo
[14] = Half life in mouse at 10 mg/kg, ip; type: ADME, organism-based; conditions: in vivo
[15] = system: HeLa; assay: Antitumor activity against human HeLa cells assessed as reduction in cell viability; type: functional, cell-based
[16] = system: Plasmodium falciparum; assay: Antimalarial activity against drug sensitive Plasmodium falciparum 3D7; type: functional, organism-based
[17] = system: Plasmodium falciparum; assay: Antimalarial activity against Plasmodium falciparum assessed as parasitic reduction at 10 mg/kg of chloroquine relative to control; type: functional; parameters: scale not given: the % may be the effect or the level left
[18] = Binding affinity to Plasmodium falciparum LDH assessed as inhibitory constant
[19] = Cmax in mouse at 100 mg/kg, ip; type: ADME, organism-based; parameters: dose 100 mg/kg, route ip; conditions: in vivo
[20] = system: KB; assay: Antitumor activity against human KB cells assessed as reduction in cell viability; type: functional, cell-based
[21] = target: Lactate dehydrogenase (Plasmodium falciparum, UniProt Q0PJ46); assay: Inhibition of recombinant Plasmodium falciparum LDH
Chain of Lactate dehydrogenase (Q0PJ46 whole entry): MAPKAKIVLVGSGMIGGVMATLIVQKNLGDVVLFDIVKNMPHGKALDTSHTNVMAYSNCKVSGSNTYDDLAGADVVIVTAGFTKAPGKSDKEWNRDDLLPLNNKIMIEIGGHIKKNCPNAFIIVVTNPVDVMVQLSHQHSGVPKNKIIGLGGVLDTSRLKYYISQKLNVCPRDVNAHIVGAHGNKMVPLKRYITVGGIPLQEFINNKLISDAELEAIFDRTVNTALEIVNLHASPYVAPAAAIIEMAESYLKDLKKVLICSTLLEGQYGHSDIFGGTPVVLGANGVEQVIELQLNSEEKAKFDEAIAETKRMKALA

[22] = system: Plasmodium falciparum; assay: Antimalarial activity against drug resistant Plasmodium falciparum KI; type: functional, organism-based
[23] = Cmax in mouse at 100 mg/kg, po; type: ADME, organism-based; parameters: dose 100 mg/kg, route po; conditions: in vivo
[24] = system: Plasmodium falciparum; assay: Antimalarial activity against Plasmodium falciparum assessed as parasitic reduction at 100 mg/kg relative to control; type: functional; parameters: scale not given: the % may be the effect or the level left
[25] = system: SW480; assay: cells; conditions: Homo sapiens, SW480, 24 h
Description: Antiproliferative activity against human SW480 cells assessed as inhibition of cell proliferation incubated for 24 hrs by MTT assay

[26] = system: HCT-116; assay: Antiproliferative activity against human HCT-116 cells assessed as inhibition of cell proliferation incubated for 24 hrs by MTT assay; type: functional, cell-based; conditions: HCT-116, 24 h
[27] = organism: Rattus norvegicus; assay: Antihypertensive activity in spontaneously hypertensive rat model assessed as reduction in pulmonary arterial pressure; type: functional
[28] = system: Rattus norvegicus; assay: Antihypertensive activity in spontaneously hypertensive rat model assessed as change in blood pressure at 1 mg/kg, po measured after 6 hrs; type: functional
[29] = organism: Rattus norvegicus; assay: Antihypertensive activity in spontaneously hypertensive rat model assessed as reduction in systemic arterial pressure; type: functional
[30] = system: Rattus norvegicus; assay: Antihypertensive activity in spontaneously hypertensive rat model assessed as change in heart rate at 1 umol/kg, po measured after 3 hrs; type: functional
[31] = system: Rattus norvegicus; assay: Antihypertensive activity in spontaneously hypertensive rat model assessed as change in heart rate at 10 mg/Kg, po measured after 6 hrs; type: functional
[32] = system: Rattus norvegicus; assay: Antihypertensive activity in spontaneously hypertensive rat model assessed as change in heart rate at 1 mmol/Kg, po measured after 10 hrs; type: functional
[33] = system: Rattus norvegicus; assay: Antihypertensive activity in spontaneously hypertensive rat model assessed as change in blood pressure at 1 mg/kg, po measured after 10 hrs; type: functional
[34] = system: Rattus norvegicus; assay: Antihypertensive activity in spontaneously hypertensive rat model assessed as change in blood pressure at 1 mg/kg, po measured after 3 hrs; type: functional
[35] = system: A549; assay: Antiproliferative activity against human A549 cells assessed as inhibition of cell proliferation incubated for 24 hrs by MTT assay; type: functional, cell-based; conditions: A549, 24 h
[36] = system: HL-60; assay: Antiproliferative activity against human HL-60 cells assessed as inhibition of cell proliferation incubated for 24 hrs by MTT assay; type: functional, cell-based; conditions: HL-60, 24 h
[37] = system: Helicobacter pylori; assay: Antibacterial activity against Helicobacter pylori SS1 assessed as reduction in bacterial growth in the presence of metronidazole-sensitive by broth microdilution method; type: functional
[38] = system: Mus musculus; assay: In vivo antibacterial activity against Helicobacter pylori SS1 infected mouse model assessed as reduction in infection at 200 mg/kg, po administered for 8 days relative to control; type: functional; parameters: scale not given: the % may be the effect or the level left; conditions: time 8 day
[39] = system: Helicobacter pylori; assay: Antibacterial activity against Helicobacter pylori NCTC11637 assessed as reduction in bacterial growth incubated for 1 hrs in presence of metronidazole-resistant by colony-counting method; type: functional
[40] = system: Helicobacter pylori; assay: Antibacterial activity against Helicobacter pylori SS1 assessed as reduction in bacterial growth incubated for 1 hrs in presence of metronidazole by colony-counting method; type: functional
[41] = system: Helicobacter pylori; assay: Antibacterial activity against Helicobacter pylori NCTC11637 assessed as reduction in bacterial growth incubated for 1 hrs in presence of metronidazole by colony-counting method; type: functional
[42] = target: Insulin-like growth factor 1 receptor (Homo sapiens, UniProt P08069); assay: Inhibition of IGF-1R (unknown origin)
[43] = target: Proto-oncogene tyrosine-protein kinase Src (Homo sapiens, UniProt P12931); assay: Inhibition SRC (unknown origin)
Chain of Proto-oncogene tyrosine-protein kinase Src (P12931 2-536 limits assumed): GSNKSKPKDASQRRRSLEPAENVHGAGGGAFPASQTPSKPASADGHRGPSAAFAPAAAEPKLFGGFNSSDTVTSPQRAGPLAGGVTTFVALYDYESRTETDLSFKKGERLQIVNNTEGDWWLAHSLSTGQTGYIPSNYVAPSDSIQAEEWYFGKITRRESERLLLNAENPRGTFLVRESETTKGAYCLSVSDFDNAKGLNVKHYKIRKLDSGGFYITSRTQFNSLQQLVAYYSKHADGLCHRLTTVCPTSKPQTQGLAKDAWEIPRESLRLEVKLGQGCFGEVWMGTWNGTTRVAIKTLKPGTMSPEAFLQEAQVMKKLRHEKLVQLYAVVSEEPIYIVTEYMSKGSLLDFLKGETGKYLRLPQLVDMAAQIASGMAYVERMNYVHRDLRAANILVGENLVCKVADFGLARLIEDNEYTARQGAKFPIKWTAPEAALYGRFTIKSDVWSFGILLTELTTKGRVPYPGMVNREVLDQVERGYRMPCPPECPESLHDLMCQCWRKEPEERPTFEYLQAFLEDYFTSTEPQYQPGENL

[44] = target: Vascular endothelial growth factor receptor 2 (Homo sapiens, UniProt P35968); assay: Inhibition of VEGF-R2 (unknown origin)
Chain of Vascular endothelial growth factor receptor 2 (P35968 whole entry): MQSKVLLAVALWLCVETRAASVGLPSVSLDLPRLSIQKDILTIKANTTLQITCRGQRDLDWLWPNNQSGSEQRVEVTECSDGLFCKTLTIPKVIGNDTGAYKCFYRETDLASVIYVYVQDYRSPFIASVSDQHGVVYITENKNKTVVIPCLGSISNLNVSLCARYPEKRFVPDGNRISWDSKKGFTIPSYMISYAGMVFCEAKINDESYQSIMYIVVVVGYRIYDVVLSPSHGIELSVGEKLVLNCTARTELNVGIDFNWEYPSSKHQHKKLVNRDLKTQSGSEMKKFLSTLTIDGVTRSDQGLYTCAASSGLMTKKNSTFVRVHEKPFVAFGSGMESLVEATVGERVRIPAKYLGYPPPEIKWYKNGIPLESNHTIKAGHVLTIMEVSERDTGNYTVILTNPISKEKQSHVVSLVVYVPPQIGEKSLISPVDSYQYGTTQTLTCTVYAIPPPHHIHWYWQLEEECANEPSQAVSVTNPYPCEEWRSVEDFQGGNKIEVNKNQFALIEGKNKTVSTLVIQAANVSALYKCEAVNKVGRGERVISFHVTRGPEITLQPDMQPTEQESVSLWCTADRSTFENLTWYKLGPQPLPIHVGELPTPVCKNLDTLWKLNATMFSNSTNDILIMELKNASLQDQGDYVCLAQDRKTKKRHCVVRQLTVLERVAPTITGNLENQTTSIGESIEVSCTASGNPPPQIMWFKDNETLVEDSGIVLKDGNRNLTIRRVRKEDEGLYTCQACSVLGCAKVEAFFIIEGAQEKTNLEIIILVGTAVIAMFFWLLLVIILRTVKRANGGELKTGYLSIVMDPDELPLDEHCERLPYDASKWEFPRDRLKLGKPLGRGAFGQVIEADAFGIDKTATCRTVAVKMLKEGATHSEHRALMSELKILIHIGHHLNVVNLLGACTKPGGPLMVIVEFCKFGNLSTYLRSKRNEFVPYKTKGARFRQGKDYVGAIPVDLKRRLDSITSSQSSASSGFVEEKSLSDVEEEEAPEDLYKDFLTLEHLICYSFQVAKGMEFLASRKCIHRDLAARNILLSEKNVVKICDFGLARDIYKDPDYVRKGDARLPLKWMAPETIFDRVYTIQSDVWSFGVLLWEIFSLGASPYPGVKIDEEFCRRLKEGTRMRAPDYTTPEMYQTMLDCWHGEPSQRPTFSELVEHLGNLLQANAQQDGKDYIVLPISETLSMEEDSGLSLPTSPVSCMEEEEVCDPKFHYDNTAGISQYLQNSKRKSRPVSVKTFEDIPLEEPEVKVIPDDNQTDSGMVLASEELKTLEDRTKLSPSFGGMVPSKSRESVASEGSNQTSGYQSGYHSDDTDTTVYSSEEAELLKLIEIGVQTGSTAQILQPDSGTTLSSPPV

[45] = target: Aurora kinase B (Homo sapiens, UniProt Q96GD4); assay: Inhibition of Aurora B (unknown origin)
Chain of Aurora kinase B (Q96GD4 whole entry): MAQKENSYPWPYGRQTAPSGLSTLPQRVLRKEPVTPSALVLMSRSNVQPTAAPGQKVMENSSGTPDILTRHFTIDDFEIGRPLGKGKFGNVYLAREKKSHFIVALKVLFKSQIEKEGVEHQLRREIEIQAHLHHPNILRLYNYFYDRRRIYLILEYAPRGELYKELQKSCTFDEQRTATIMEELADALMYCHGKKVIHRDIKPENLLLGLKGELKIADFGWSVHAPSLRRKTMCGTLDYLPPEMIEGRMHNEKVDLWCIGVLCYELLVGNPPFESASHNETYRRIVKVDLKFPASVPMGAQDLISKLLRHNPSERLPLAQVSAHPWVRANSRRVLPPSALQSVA

[46] = target: Epidermal growth factor receptor (Homo sapiens, UniProt P00533); assay: Inhibition of EGF-R (unknown origin)
Chain of Epidermal growth factor receptor (P00533 whole entry): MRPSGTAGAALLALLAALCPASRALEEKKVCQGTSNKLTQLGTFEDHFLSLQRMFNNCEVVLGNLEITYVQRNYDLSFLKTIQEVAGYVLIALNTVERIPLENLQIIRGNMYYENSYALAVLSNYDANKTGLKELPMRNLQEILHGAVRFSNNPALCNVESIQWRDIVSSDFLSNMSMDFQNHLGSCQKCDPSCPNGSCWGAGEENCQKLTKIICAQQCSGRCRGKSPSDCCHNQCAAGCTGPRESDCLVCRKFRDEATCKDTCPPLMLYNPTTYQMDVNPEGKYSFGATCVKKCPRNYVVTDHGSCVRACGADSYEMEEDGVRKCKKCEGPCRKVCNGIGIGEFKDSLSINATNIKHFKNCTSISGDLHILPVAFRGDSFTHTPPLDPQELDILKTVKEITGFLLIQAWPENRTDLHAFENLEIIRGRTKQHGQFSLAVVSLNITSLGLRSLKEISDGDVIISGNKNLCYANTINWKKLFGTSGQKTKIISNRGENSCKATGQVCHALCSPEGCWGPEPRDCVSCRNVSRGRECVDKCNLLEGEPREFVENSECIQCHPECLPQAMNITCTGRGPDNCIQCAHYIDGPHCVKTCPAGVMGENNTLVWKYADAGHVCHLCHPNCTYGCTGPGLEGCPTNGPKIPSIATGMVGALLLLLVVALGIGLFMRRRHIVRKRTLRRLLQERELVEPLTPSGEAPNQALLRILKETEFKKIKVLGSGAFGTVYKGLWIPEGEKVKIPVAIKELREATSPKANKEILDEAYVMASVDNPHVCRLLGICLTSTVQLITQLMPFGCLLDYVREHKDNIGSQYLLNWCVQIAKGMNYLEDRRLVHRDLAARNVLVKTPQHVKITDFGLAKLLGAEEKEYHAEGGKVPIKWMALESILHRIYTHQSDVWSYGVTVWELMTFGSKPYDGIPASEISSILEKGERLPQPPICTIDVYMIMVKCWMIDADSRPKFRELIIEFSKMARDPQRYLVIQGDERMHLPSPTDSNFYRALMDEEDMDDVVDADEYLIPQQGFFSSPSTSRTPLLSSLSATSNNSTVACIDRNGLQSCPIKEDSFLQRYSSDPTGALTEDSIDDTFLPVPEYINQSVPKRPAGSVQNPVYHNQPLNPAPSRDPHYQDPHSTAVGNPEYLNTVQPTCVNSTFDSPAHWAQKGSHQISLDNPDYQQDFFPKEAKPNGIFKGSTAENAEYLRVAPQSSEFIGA

[47] = Half life in rat, iv; type: ADME; conditions: in vivo
[48] = system: HeLa; assay: Antitumor activity against human HeLa cells xenografted in mouse model assessed as reduction in tumor growth at 100 mg/kg bid relative to control; type: functional; parameters: scale not given: the % may be the effect or the level left
[49] = target: Ribosomal protein S6 kinase beta-1 (Homo sapiens, UniProt P23443); assay: Inhibition of p70S6 (unknown origin) […]
Chain of Ribosomal protein S6 kinase beta-1 (P23443 whole entry): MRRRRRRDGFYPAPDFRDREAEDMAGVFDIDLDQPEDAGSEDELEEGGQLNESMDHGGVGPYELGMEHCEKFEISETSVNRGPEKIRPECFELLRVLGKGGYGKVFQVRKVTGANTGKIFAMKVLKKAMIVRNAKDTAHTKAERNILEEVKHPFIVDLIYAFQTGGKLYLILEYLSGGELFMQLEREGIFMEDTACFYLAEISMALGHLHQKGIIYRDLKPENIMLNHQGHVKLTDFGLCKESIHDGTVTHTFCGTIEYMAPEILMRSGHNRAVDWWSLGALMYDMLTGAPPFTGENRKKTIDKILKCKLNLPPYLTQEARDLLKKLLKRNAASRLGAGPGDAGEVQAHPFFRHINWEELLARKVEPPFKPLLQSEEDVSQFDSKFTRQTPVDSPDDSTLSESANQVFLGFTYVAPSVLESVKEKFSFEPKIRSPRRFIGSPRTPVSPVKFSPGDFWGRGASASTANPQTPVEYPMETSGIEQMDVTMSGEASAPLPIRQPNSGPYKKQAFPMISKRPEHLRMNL

CCn1c(-c2nonc2N)nc2c(C#CC(C)(C)O)ncc(OC[C@H]3CCCNC3)c21 [GSK-690693]
Activity [1]: 58% | Activity [2]: 5% | Activity [3]: 65% | Activity [4]: 50% | Activity [5]: 27% | Activity [6]: 46%

NS(=O)(=O)NCCNc1nonc1/C(=N/O)Nc1ccc(F)c(Br)c1 [EPACADOSTAT]
half-life [7]: < 0.5 h | CLint scaled [8]: 11.7 mL/min/kg | bioavailability [9]: 11% | Activity [10]: 50% | Activity [11]: 56%

O=C(O)c1nonc1O
IC50 [12]: 72.1 µM | half-life [13]: 1.3 h | half-life [14]: 1.3 h | EC50 [15]: 1300 µM | EC50 [16]: 22.5 µM | EC90 [16]: 75.9 µM | Activity [17]: 100% | Ki [18]: 0.21 µM | Cmax [19]: 196 µM | EC50 [20]: 640 µM | IC50 [21]: 0.65 µM | EC50 [22]: 18.6 µM | Cmax [23]: 138 µM | Activity [24]: 41%

c1ccc2c(c1)c1nc3nonc3nc1n2CCc1nn[nH]n1
EC50 [25]: 20 µM | EC50 [26]: 31 µM

CCn1c(-c2nonc2N)nc2cncc(C(=O)N3CC[C@H](N)C3)c21
Activity [27]: -13 mmHg | Activity [28]: -20 mmHg | Activity [29]: -40 mmHg | Activity [30]: 20 bpm | Activity [31]: -40 bpm | Activity [32]: -25 bpm | Activity [33]: -5 mmHg | Activity [34]: -20 mmHg

Nc1nonc1C(=O)N/N=C1\c2ccccc2-c2nc3nonc3nc21
EC50 [35]: 0.8 µM | EC50 [26]: 1.6 µM | EC50 [36]: 1.2 µM

COc1ccc(C[S+]([O-])c2ccc(N)c3nonc23)cc1 (stereo unspecified)
MIC [37]: 105 µM | Activity [38]: 60% | MIC [39]: 53 µM | MIC [40]: 2.9 µM | MIC [41]: 187 µM

O=C(O)c1cc(-c2ccc(/C=N/Nc3nc4nonc4nc3Nc3ccccc3)o2)ccc1Cl
IC50 [42]: < 1 µM | IC50 [43]: < 1 µM | IC50 [44]: < 1 µM | IC50 [45]: < 1 µM | IC50 [46]: < 1 µM

O=C(CNc1nonc1/C(=N/O)N[C@H]1Cc2ccc(F)cc21)NCCO
half-life [47]: 3.7 h | Activity [48]: 15%

Cc1ccc2c(c1)nc(-c1nonc1N)n2C1CCC1
IC50 [49]: 0.019 µM
